# Earlier results, collected in patent US20020177547A1, “Pharmaceutical compositions for treating or preventing cancer” (priority 2001, published 2002).
# What was measured:
# [1] = test system: peripheral blood lymphocytes (PBL) of melanoma patients; conditions: repeated in vitro stimulation of PBL
Sequence,recognition by TILs (hgp100 TILs),induction of melanoma-reactive CTLs [1]
ITDQVPFSV [peptide 2],immunodominant,–
KTWGQYWQV [peptide 1],immunodominant,–
VLYRYGSFSV (listed as Homo sapiens) [Peptide 3],–,able to induce melanoma-reactive CTLs
